{"source": "patent US5958947A", "about": "“DNA-affinic hypoxia selective cytotoxins” (priority 1996, dated 1999)", "key": {"calf thymus Topo I": {"target": "T1, calf thymus Topo I (Bos taurus, UniProt F1MN93)", "T1 construct": "purchased TopoGEN, Inc., Columbus, Ohio; host or cells: calf thymus", "T1 sequence (F1MN93 1-767)": "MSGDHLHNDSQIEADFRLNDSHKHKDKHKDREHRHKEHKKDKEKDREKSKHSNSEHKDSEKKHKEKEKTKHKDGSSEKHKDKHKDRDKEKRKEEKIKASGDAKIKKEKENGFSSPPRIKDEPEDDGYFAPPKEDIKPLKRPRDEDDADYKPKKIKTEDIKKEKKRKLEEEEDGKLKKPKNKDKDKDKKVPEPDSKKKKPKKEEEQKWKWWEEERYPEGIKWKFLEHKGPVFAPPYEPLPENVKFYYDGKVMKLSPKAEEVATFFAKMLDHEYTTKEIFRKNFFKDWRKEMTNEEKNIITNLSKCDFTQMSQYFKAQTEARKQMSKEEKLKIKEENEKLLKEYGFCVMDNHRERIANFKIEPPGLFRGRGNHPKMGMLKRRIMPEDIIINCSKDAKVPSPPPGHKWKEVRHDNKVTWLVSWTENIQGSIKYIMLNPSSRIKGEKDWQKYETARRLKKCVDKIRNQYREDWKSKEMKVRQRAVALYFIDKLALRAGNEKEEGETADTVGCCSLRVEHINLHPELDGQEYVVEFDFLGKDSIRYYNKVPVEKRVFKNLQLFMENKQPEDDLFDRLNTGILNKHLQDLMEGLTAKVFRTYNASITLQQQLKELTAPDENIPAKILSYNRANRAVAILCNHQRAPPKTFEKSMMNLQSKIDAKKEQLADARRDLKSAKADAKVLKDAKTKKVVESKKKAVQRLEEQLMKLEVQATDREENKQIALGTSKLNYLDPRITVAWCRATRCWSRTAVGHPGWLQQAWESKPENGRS", "assay": "Topoisomerase I interaction (relaxation of supercoiled DNA)", "format": "biochemical", "experimental": "In particular, a Topo I drug screening kit (TopoGEN, Inc., Columbus, Ohio) was used to assay the topoisomerase I THNLA-1 interaction. […] Camptothecin is a Topoisomerase I poison used as an anticancer drug. Camptothecin stabilizes the Topo I-DNA cleavable complex, and therefore prevents the resealing of DNA by Topo-I.\nIndividual reaction mixtures were heated for 30 minutes at 37° C. on a heating block, and then 2 μl of 10% SDS - proteinase K solution was added to each reaction mixture. The resulting reaction mixtures then were heated for an additional 30 minutes at 37° C. The reaction mixtures in a loading buffer were extracted with CHCl3 prior to submarine electrophoresis on a 1% agarose gel. The DNA bands were observed visually by staining with ethidium bromide (0.5 μg/ml)."}, "[1]": {"system": "V79 Chinese hamster lung cells", "assay": "Radiosensitization of V79 cells", "format": "cell-based", "conditions": "for EC (SER 1.6): Cricetulus griseus", "experimental": "(§1) Samples of V79 Chinese hamster lung cells used in the following experiments were prepared as follows. V79 cells, exponentially growing as monolayer cultures in RPMI 1640 medium (Mediatech) supplemented with 10% fetal calf serum, were trypsinized, centrifuged for 5 min, harvested, then suspended in 25 ml Erlenmeyer flasks fitted with rubber caps at 5×10^5 cells/ml (5 ml). Individual flasks either were shaken (100 rpm) at 37° C. under aerobic conditions or made hypoxic by gassing with a 95% N2 (nitrogen)/5% CO2 (carbon dioxide) humidified gas mixture for 1 hour.\nRadiosensitization studies were performed on V79 cells in a manner similar to the acute toxicity experiments, except that the survival fraction was determined after a predetermined radiation dose. […] One Gy is equal to 100 rads, wherein one rad is the quantity of ionizing radiation that results in the absorption of 100 ergs of energy per gram of irradiated material. Hypoxia was maintained throughout irradiation. […] Sensitization enhancement ratios (SER) were determined at a 10% survival level. […] The plotted points in FIGS. 3 and 4 represent the mean of 2 or 3 replicate experiments."}, "solid tumors": {"system": "solid tumors", "conditions": "cited from earlier work"}, "V79 cells [2]": {"system": "V79 cells", "assay": "Drug uptake in the presence of ammonium chloride", "format": "cell-based, Chinese hamster", "conditions": "aerobic V79 cells, 60 μM input, 50 mM NH4Cl (stated for THNLA-1)", "experimental": "Uptake measurements in the presence of the lysosomotropic agent ammonium chloride (NH4 Cl) also were performed in a manner as previously described.\nConcentrations were determined by UV spectrophotometry at 330 nm. The plotted points represent the mean of two experiments."}, "[3]": {"assay": "Acute aerobic and hypoxic cytotoxicity (colony formation)", "format": "cell-based, Chinese hamster", "conditions": "chinese hamster, aerobic v79 cells, V79 cells, aerobic, 1 hour, 37° C.; 50% inhibition of clonogenicity", "experimental": "as §1\n(§2) To determine the fraction of surviving cells, samples were removed, diluted and plated to provide 2×10^2 to 2×10^4 cells/well on 60 mm Linbro multi-well plates (Flow Laboratories, McLean, Virginia). The plates were incubated at 37° C. for 6 days, stained with crystal violet and examined for colony formation. Colonies of 50 cells or greater were counted. Each plotted point in FIGS. 1 and 2 represent the mean of three or four replicate experiments."}, "[4]": {"system": "V79 Chinese hamster lung cells", "assay": "Acute aerobic and hypoxic cytotoxicity (colony formation)", "format": "cell-based", "experimental": "as §1, §2"}, "[5]": {"assay": "Partition coefficient in octanol/water", "format": "physicochemical", "experimental": "The partition coefficient of the hypoxia selective cytotoxins of the present invention were determined by the method of T. Fujita et al., J. Am. Chem. Soc., 86, 5175-5180 (1964), incorporated herein by reference."}, "V79 cells [6]": {"system": "V79 cells", "assay": "Isoeffective to the oxygen dose (IsD)", "format": "cell-based, Chinese hamster", "conditions": "Cricetulus griseus, V79, 1 h, 7.5 Gy, 1 hour at 37° C.; read-out: Isoeffective to the oxygen dose at 7.5 Gy: IsD(7.5)", "from_the_text": "The survival fraction under hypoxic conditions (plotted versus compound concentration) meets the aerobic survival fraction (radiation toxicity) at the IsD. The IsD value is a useful indicator of the overall potency of a compound as a sensitizer and cytotoxin of hypoxic cells. IsD is especially useful when comparing different compounds for hypoxic cytotoxicity and radiosensitizing efficacy.\nFIGS. 5 and 6 illustrate the IsD at 7.5 Gy (FIG. 5A) and 20 Gy (FIG. 5B). FIGS. 5A and 6A include a comparison to the prior art NLA-1 compound. V79 cells were irradiated at 7.5 Gy or 20 Gy after a 1 hour exposure under hypoxia (symbols) or air (straight line), at various drug concentrations. No toxicity or radiosensitization for any tested compound was observed under aerobic conditions over the tested concentration ranges. IsD values were calculated from the intersections of the survival fractions of the hypoxic curves with the survival fraction in air. All data points in FIGS. 5 and 6 represent the mean of two replicate experiments."}}, "note": "pIC50: −log10 of the molar value. Values joined by “and” are separate entries in the source; they are usually repeats but may differ in a detail not shown here. Equal values may be shown once. Read-outs that look alike come from different tables or passages of the source.", "data": [{"compound": "Cl.O=[N+]([O-])c1nccn1CCCNc1c2ccccc2nc2ccccc12", "note": "[NLA-1, 9-[3-(2-nitro-1-imidazolyl)propylamino]acridine hydrochloride, reference compound]", "values": [{"measurement": "Topo I-dependent single-stranded DNA cleavage", "setting": "calf thymus Topo I", "value": "observed"}, {"measurement": "pIC50", "setting": "calf thymus Topo I; Topo I inhibition (50%)-dose, Topo I-induced relaxation of supercoiled DNA", "value": "~4.92 and 4.92"}, {"measurement": "EC (SER 1.6)", "setting": "[1]; 1 h, concentration yielding an SER of 1.6, hypoxic V79 cells, read-out: Hypoxic radiosensitizing potency: C1.6", "value": 8, "unit": "µM"}, {"measurement": "EC (SER 1.6)", "setting": "[1]; hypoxic radiosensitization, V79 cells (tables), read-out: Intracellular concentration at C1.6: C1.6i", "value": 885, "unit": "µM"}, {"measurement": "EC (SER 1.6)", "setting": "[1]; hypoxic radiosensitization, V79 cells, read-out: Intracellular concentration for an SER of 1.6: C1.6i", "value": 885, "unit": "µM"}, {"measurement": "radioprotection under aerobic conditions", "setting": "[1]; aerobic", "value": "afforded radioprotection under aerobic conditions"}, {"measurement": "radiosensitization in vivo / in solid tumors (prior art)", "setting": "solid tumors", "value": "failure of NLA-1 as radiosensitizer in solid tumors"}, {"measurement": "factor of decrease of Ci in the presence of NH4Cl", "setting": "V79 cells [2]", "value": "about 3"}, {"measurement": "IC50 at 1 h", "setting": "[3]", "value": 84, "unit": "µM"}, {"measurement": "pIC50", "setting": "[4]; Cricetulus griseus, V79, 1 h, V79 cells, hypoxia, 1 hour, 37° C., 50% inhibition of clonogenicity", "value": 4.82}, {"measurement": "Hypoxic selectivity (differential aerobic/hypoxic toxicity): IC50/A,1h /IC50/H,1h", "setting": "[4]; V79 cells, 1 hour, 37° C.", "value": 5.5}, {"measurement": "cytotoxicity / selectivity relative to THNLA-1 or NLA-1", "setting": "[4]; from IC50/H, IC50/A and their ratio", "value": "about a two times more potent hypoxic cytotoxin"}, {"measurement": "Partition coefficient in octanol/water: PCo/w", "setting": "[5]", "value": 0.07}, {"measurement": "logP", "setting": "[5]; read-out: Partition coefficient in octanol/water: PCo/w (converted)", "value": -1.15}, {"measurement": "EC (isoeffective to oxygen at 7.5 Gy)", "setting": "V79 cells [6]", "value": "~11", "unit": "µM"}]}]}
